{
  "source": "patent US20110104159A1",
  "about": "“COMPOSITIONS AND METHODS FOR TREATING, CONTROLLING, REDUCING, AMELIORATING, OR PREVENTING ALLERGY” (priority 2006, published 2011)",
  "key": {"[1]": {"system": "ovalbumin-sensitized guinea pigs", "test": "Active anaphylaxis in the guinea pig: conjunctival symptoms after OVA challenge", "format": "in vivo", "details": "0.4% eye drops, 30 μl/eye 45 min before OVA", "experimental": "Male Dunkin-Hartley guinea pigs (250-300 g) were purchased from Charles River (Calco, Italy). Animal procedures followed the guidelines of the University of Bologna Animal Care and Use Committee and conformed to the Association for Research in Vision and Ophthalmology (ARVO) resolution on the use of animals in research.\nMale Dunkin-Hartley guinea pigs were actively immunized by i.p. injection of 200 μg OVA in 2 ml saline with 40 mg aluminum hydroxide (positive control) or saline alone (negative control), as previously reported. […] Negative controls received saline alone.\nConjunctival clinical symptoms were rated blind on both eyes using the following scale: 0, no symptoms; 1, slight conjunctival redness with or without tears; 2, mild conjunctival redness with tears and mild chemosis; 3, mild conjunctival redness with tears and moderate chemosis; 4, severe conjunctival redness with tears and partial lid eversion; 5, severe conjunctival redness with tears and lids more than half closed. The animals were euthanized 24 h after OVA challenge by i.p. injection of Tanax® (3 ml/kg; Hoechst AG, Frankfurt-am-Main, Germany) and the conjunctivas were carefully excised and each was divided into two samples for subsequent investigations. […] The number of eosinophils in each field was counted under light microscopy (×500 magnification). In the other sample eosinophil peroxidase activity was measured."}, "ICAM-1": {"system": "ICAM-1", "test": "IL-4 and TNF-α-induced ICAM-1 expression in HConEpiC cell lysates (Luminex)", "format": "cell-based, human", "details": "all doses 10-1000 nM, 24 h", "experimental": "Primary human conjunctival epithelial cells (HConEpiC) were seeded in two 24-well plates in EpiLife medium+1% Human Corneal Growth Supplement (HCGS; contains bovine pituitary extract, bovine insulin, hydrocortisone, bovine transferrin and mouse epidermal growth factor) at 2×10^4 cells/well. When the cells were confluent (4-5 days after seeding), they were incubated in EpiLife GF medium without glucocorticoids (EpiLife basic medium supplemented with 50 μg/ml bovine pituitary extract, 5 μg/ml bovine insulin and 5 ng/ml mouse epidermal growth factor) for 18 h. […] Culture medium was collected. Cytokine analysis was performed on the culture medium using 2 separate cytokine/chemokine Luminex kits (Kit 1: G-CSF, GM-CSF, IL-6, IL-8, IP-10, MCP-1, RANTES; Kit 2: eotaxin-3, CTACK). ICAM-1 expression was determined in cell lysates using a Luminex kit.\nMedian fluorescence intensity (MFI) was used to obtain the concentration of each cytokine and ICAM-1 in pg/ml based on the standard curve of each cytokine assayed by Luminex using the StatLIA software. ICAM-1 expression was expressed as pg/mg protein. All data were expressed as mean±SEM. Statistical analysis was performed using a two-way ANOVA-Contrast test with Factor 1 being drug and Factor 2 being dose (JMP 8 software, SAS Institute, Cary, N.C.). […] Data were analyzed either directly or after Box-Cox transformations (9, 10)."}, "caspase-3": {"system": "caspase-3", "test": "Caspase-3 activation in human eosinophils (Western blotting)", "format": "cell-based", "details": "24 h, 0.1% FBS; BOL-303242-X 1-1000 nM, dexamethasone 1000 nM", "experimental": "Human eosinophils were pelleted and resuspended in 100 μl of CER I buffer (NE-PER™ Extraction reagent; Pierce). After 10 min incubation on ice, 5.5 μl of CER II buffer was added and the suspension was resuspended by vortexing, incubated on ice for 1 min and resuspended. The cytoplasmic fraction was separated by centrifugation at 16,000 g for 5 min. The protein content was quantified using a BCA protein assay (Pierce). The proteins of the cytoplasmic extract (50 μg) were denatured at 95° C. for 3 min, then loaded and separated by 15% sodium dodecyl sulfate-polyacrylamide gel electrophoresis (SDS-PAGE). We used MagicMark™ XP Western Standard as a molecular weight standard.\nProteins were transferred to Protran™ nitrocellulose membranes, which were blocked with 5% non-fat milk in TBS (10 mM Tris-HCl, pH 8, containing 150 mM NaCl) plus 0.1% Tween 20 for 1 h at room temperature (25° C.). The blots were probed overnight at 4° C. in TBS containing 0.1% Tween 20, 5% non-fat milk and antibodies with dilutions of 1:1000 for caspase-3 monoclonal antibody or 1:5000 for β-actin antibody (used as a loading control for cytoplasmic cell lysates). The former detects endogenous levels of procaspase-3 (around 32 kDa; p32) and its large subunit cleavage product of approximately 17 kDa (p17). The membranes were incubated with peroxidase-conjugated secondary antibodies at a dilution of 1:8000. […]"}, "[2]": {"system": "monkey trabecular meshwork cells", "details": "monkey trabecular meshwork cells [28]; cited from earlier work"}, "[3]": {"system": "murine thymocyte line S49", "details": "murine thymocyte line S49 [26]; cited from earlier work"}},
  "data": [
    {"smiles": "Cc1ccc2c(NC[C@](O)(CC(C)(C)c3cc(F)cc4c3OCC4)C(F)(F)F)cccc2n1", "note": "[BOL-303242-X, (R)-1,1,1-Trifluoro-4-(5-fluoro-2,3-dihydrobenzofuran-7-yl)-4-methyl-2-{[(2-methyl-5-quinolyl)amino]methyl}pentan-2-ol]", "values": [
      {"measurement": "Conjunctival symptoms (swelling of the eyelids and chemosis), early phase", "setting": "[1]; 1 h after challenge", "value": "significantly reduced"},
      {"measurement": "Severity of conjunctival symptoms, late phase", "setting": "[1]; 6 h after challenge", "value": "significant reduction in the severity of conjunctival symptoms"},
      {"measurement": "IL-4 plus TNF-α-induced ICAM-1 expression in cell lysates", "setting": "ICAM-1", "value": "significantly decreased"},
      {"measurement": "Caspase-3 p17 subunit level (Western blot)", "setting": "caspase-3", "value": "marked, concentration-dependent increase of the p17 subunit"},
      {"measurement": "Agonism in increasing myocilin expression", "setting": "[2]", "value": "partial glucocorticoid receptor agonist"},
      {"measurement": "Induction of apoptosis in thymocytes", "setting": "[3]", "value": "does not induce apoptosis"}
    ]}
  ]
}
